Drawing on patent US10538555B2, “Macrocyclic inhibitors of the PD-1/PD-L1 and CD80(B7-1)/PD-L1 protein/protein interactions” (BRISTOL-MYERS SQUIBB COMPANY, priority 2014, dated 2020), this text covers IC50 for 12 compounds.

*1 amine or outer side, *2 acyl side, *3 side chain or, on linkers, in order; H or OH if unused. Where a SMILES comes first, the peptide text is derived from it. Bridges are numbered along the chain shown (N, C = ends). [ ]: non-standard residue; d: D form. ξ: configuration not given here. Trp(1-CH2COOH) = N[C@@H](Cc1cn(CC(=O)O)c2ccccc12)C(=O)O; Phe(3,4,5-F3) = N[C@@H](Cc1cc(F)c(F)c(F)c1)C(=O)O; NMePhe(4-F) = CN[C@@H](Cc1ccc(F)cc1)C(=O)O; X8 = O=C([C@H](CC1CNc2ccccc21)N[*:1])[*:2]; Bta = N[C@@H](Cc1csc2ccccc12)C(=O)O; Lys(Me2) = CN(C)CCCC[C@H](N)C(=O)O; Hyp = O=C(O)[C@@H]1C[C@@H](O)CN1; NMeAhp(2) = CCCCC[C@H](NC)C(=O)O; NMeF = CN[C@@H](Cc1ccccc1)C(=O)O; dHyp = O=C(O)[C@H]1C[C@H](O)CN1; NMeL = CN[C@@H](CC(C)C)C(=O)O; NMeNle = CCCC[C@H](NC)C(=O)O; Pip = O=C(O)[C@@H]1CCCCN1; dPip = O=C(O)[C@H]1CCCCN1; hSer = N[C@@H](CCO)C(=O)O; NMeA = CN[C@@H](C)C(=O)O; Orn = NCCC[C@H](N)C(=O)O; dNMeA = CN[C@H](C)C(=O)O; Dab = NCC[C@H](N)C(=O)O; Dap = NC[C@H](N)C(=O)O; ξC = NC(CS)C(=O)O; Sar = CNCC(=O)O

The target in one experiment is T1, Human PD-L1/PD-1 (Homo sapiens, UniProt Q9NZQ7).
T1 construct: TVMV protease cleavage site (C); made in house; host or cells: HEK293T cells
T1 sequence (Q9NZQ7 with tags, fused parts or gaps): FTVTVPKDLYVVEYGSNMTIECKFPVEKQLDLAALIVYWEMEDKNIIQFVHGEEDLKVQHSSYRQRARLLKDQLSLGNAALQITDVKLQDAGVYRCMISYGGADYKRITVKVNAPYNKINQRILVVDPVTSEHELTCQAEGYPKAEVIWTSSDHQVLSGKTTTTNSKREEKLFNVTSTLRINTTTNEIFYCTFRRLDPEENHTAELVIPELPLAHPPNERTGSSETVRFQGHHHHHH
Kind of experiment: HTRF Human PD-L1/PD-1 binding assay (PD-1-Ig/PD-L1-His). The conditions noted are these: PD-L1-His 10 nM, PD-1-Ig 20 nM; class symbol; read-out: HTRF Human PD-L1/PD-1 Binding Assay IC50 Range. An excerpt: Methods for Testing the Ability of Macrocyclic Peptides to Compete for the Binding of PD-1 to PD-L1 Using Homogenous Time-Resolved Fluorescence (HTRF) Binding Assays
The ability of the macrocyclic peptides of the present disclosure to bind to PD-L1 was investigated using a PD-1/PD-L1 Homogenous Time-Resolved Fluorescence (HTRF) binding assay.
Homogenous Time-Resolved Fluorescence (HTRF) Assays of Binding of Soluble PD-1 to Soluble PD-L1. Soluble PD-1 and soluble PD-L1 refers to proteins with carboxyl-end truncations that remove the transmembrane-spanning regions and are fused to heterologous sequences, specifically the Fc portion of the human immunoglobuling G sequence (Ig) or the hexahistidine epitope tag (His). All binding studies were performed in an HTRF assay buffer consisting of dPBS supplemented with 0.1% (w/v) bovine serum albumin and 0.05% (v/v) Tween-20. For the PD-1-Ig/PD-L1-His binding assay, inhibitors were pre-incubated with PD-L1-His (10 nM final) for 15 m in 4 μl of assay buffer, followed by addition of PD-1-Ig (20 nM final) in 1 μl of assay buffer and further incubation for 15 m. PD-L1 fusion proteins from either human, cynomolgus macaques, or mouse were used. HTRF detection was achieved using europium crypate-labeled anti-Ig monoclonal antibody (1 nM final) and allophycocyanin (APC) labeled anti-His monoclonal antibody (20 nM final). Antibodies were diluted in HTRF detection buffer and 5 μl was dispensed on top of binding reaction. The reaction was allowed to equilibrate for 30 minutes and signal (665 nm/620 nm ratio) was obtained using an EnVision fluorometer. Additional binding assays were established between PD-1-Ig/PD-L2-His (20 and 5 nM, respectively), CD80-His/PD-L1-Ig (100 and 10 nM, respectively) and CD80-His/CTLA4-Ig (10 and 5 nM, respectively). Competition studies between biotinylated Compound No. 71 and human PD-L1-His were performed as follows. Macrocyclic peptide inhibitors were pre-incubated with PD-L1-His (10 nM final) for 60 minutes in 4 μl of assay buffer followed by addition of biotinylated Compound No. 71 (0.5 nM final) in 1 μl of assay buffer. Binding was allowed to equilibrate for 30 minutes followed by addition of europium crypated labeled Streptavidin (2.5 pM final) and APC-labeled anti-His (20 nM final) in 5 μl of HTRF buffer. The reaction was allowed to equilibrate for 30 m and signal (665 nm/620 nm ratio) was obtained using an EnVision fluorometer.
Recombinant Proteins. Carboxyl-truncated human PD-1 (amino acids 25-167) with a C-terminal human Ig epitope tag [hPD-1 (25-167)-3S-IG] and human PD-L1 (amino acids 18-239) with a C-terminal His epitope tag [hPD-L1([…])-tobacco vein mottling virus protease cleavage site (TVMV)-His] were expressed in HEK293T cells and purified sequentially by rProteinA affinity chromatography and size exclusion chromatography.
(In TR-FRET formats the signal depends on donor and acceptor labels being close together.)
With `CCCC[C@H]1C(=O)N(C)[C@@H](CCCC)C(=O)N(C)[C@@H](CC(C)C)C(=O)N[C@H](C(=O)NCC(N)=O)CSCC(=O)N[C@@H](Cc2ccc(O)cc2)C(=O)N(C)[C@@H](C)C(=O)N[C@@H](CC(N)=O)C(=O)N2CCC[C@H]2C(=O)N[C@@H](Cc2c[nH]cn2)C(=O)N[C@@H](CCC(=O)O)C(=O)N2C[C@H](O)C[C@H]2C(=O)N[C@@H](Cc2c[nH]c3ccccc23)C(=O)N[C@@H](CCN)C(=O)N[C@@H](Cc2csc3ccccc23)C(=O)N1C` [Example 5264] ({CH2CO}-Y[NMeA]NPHE[Hyp]W[Dab][Bta][NMeNle][NMeNle][NMeL]CG-NH2; thioether N-14), the IC50 was 1000 to 10000 nM.

`CCCC[C@H]1C(=O)N(C)[C@@H](CCCC)C(=O)NCC(=O)N[C@H](C(=O)NCC(N)=O)CSCC(=O)N[C@@H](Cc2ccc(O)cc2)C(=O)N(C)[C@@H](C)C(=O)N[C@@H](CC(N)=O)C(=O)N2CCC[C@H]2C(=O)N[C@@H](Cc2c[nH]cn2)C(=O)N[C@@H](CCC(N)=O)C(=O)N2C[C@H](O)C[C@H]2C(=O)N[C@@H](Cc2c[nH]c3ccccc23)C(=O)NCC(=O)N[C@@H](Cc2c[nH]c3ccccc23)C(=O)N1C` [Example 5198] ({CH2CO}-Y[NMeA]NPHQ[Hyp]WGW[NMeNle][NMeNle]GCG-NH2; thioether N-14): the IC50 fell in the range of 10 to 99.9 nM.

On to `CCCC[C@H]1C(=O)N[C@@H](CC(N)=O)C(=O)N2CCC[C@H]2C(=O)N[C@@H](CO)C(=O)N[C@@H](CCO)C(=O)N2CCC[C@H]2C(=O)N[C@@H](Cc2c[nH]c3ccccc23)C(=O)N[C@@H](CO)C(=O)N[C@@H](Cc2c[nH]c3ccccc23)C(=O)N(C)[C@@H](C)C(=O)N(C)[C@@H](C)C(=O)N[C@@H](CCC(=O)O)C(=O)NC(C(=O)NCC(N)=O)CSCC(=O)N[C@@H](Cc2ccc(O)cc2)C(=O)N1C` (stereo partly drawn) [Example 10209] ({CH2CO}-Y[NMeNle]NPS[hSer]PWSW[NMeA][NMeA]E[ξC]G-NH2; thioether N-14), for which the IC50 is 1000 to 10000 nM.

As to `CC(C)[C@@H]1NC(=O)[C@H](CC(=O)O)NC(=O)[C@@H](C)N(C)C(=O)[C@H](C)N(C)C(=O)[C@H](Cc2ccccc2)N(C)C(=O)[C@H](Cc2cc(F)c(F)c(F)c2)NC(=O)CSC[C@@H](C(=O)NCC(N)=O)NC(=O)[C@H](CCCN)NC(=O)[C@H](Cc2ccc(O)cc2)NC(=O)[C@H](Cc2c[nH]c3ccccc23)NC(=O)[C@@H](C)N(C)C(=O)[C@H](Cc2ccc(O)cc2)NC(=O)[C@H](Cc2ccccc2)N(C)C1=O` [Example 9193] ({CH2CO}-[Phe(3,4,5-F3)][NMeF][NMeA][dNMeA]DV[NMeF]Y[dNMeA]WY[Orn]CG-NH2; thioether N-13), the IC50 lay within 1 to 9.9 nM.

For `CCCC[C@H]1C(=O)N2C[C@@H](O)C[C@@H]2C(=O)N[C@@H](CC(=O)O)C(=O)N[C@@H](C(C)C)C(=O)N(C)[C@@H](Cc2ccccc2)C(=O)N[C@@H](CCC(=O)O)C(=O)N2CCCC[C@@H]2C(=O)N[C@@H](Cc2c[nH]c3ccccc23)C(=O)N[C@@H](Cc2ccc(O)cc2)C(=O)N[C@@H](CO)C(=O)N[C@H](C(=O)NCC(N)=O)CSCC(=O)N[C@@H](Cc2cc(F)c(F)c(F)c2)C(=O)N(C)[C@@H](Cc2ccc(F)cc2)C(=O)N1C` [Example 10557] ({CH2CO}-[Phe(3,4,5-F3)][NMePhe(4-F)][NMeNle][dHyp]DV[NMeF]E[dPip]WYSCG-NH2; thioether N-13), the IC50 was in the range of 1 to 9.9 nM.

As for `CCCC[C@H]1C(=O)N(C)[C@@H](CCCC)C(=O)N[C@@H](CN)C(=O)N[C@H](C(=O)NCC(N)=O)CSCC(=O)N[C@@H](Cc2ccc(O)cc2)C(=O)N(C)[C@@H](C)C(=O)N[C@@H](CC(N)=O)C(=O)N2CCC[C@H]2C(=O)N[C@@H](CO)C(=O)N[C@@H](Cc2cnc[nH]2)C(=O)N2C[C@H](O)C[C@H]2C(=O)N[C@@H](Cc2c[nH]c3ccccc23)C(=O)N[C@@H](CCN)C(=O)N[C@@H](Cc2cn(CC(=O)O)c3ccccc23)C(=O)N1C` [Example 6247] ({CH2CO}-Y[NMeA]NPSH[Hyp]W[Dab][Trp(1-CH2COOH)][NMeNle][NMeNle][Dap]CG-NH2; thioether N-14), the IC50 was 1 to 9.9 nM.

Consider `CCCC[C@H]1C(=O)N(C)[C@@H](CCCC)C(=O)N(C)CC(=O)N[C@H](C(=O)NCC(N)=O)CSCC(=O)N[C@@H](Cc2ccc(O)cc2)C(=O)N(C)[C@@H](C)C(=O)N[C@@H](CC(N)=O)C(=O)N2CCC[C@H]2C(=O)N[C@@H](Cc2c[nH]cn2)C(=O)N[C@@H](CCC(N)=O)C(=O)N2C[C@H](O)C[C@H]2C(=O)N[C@@H](Cc2c[nH]c3ccccc23)C(=O)N[C@@H](CO)C(=O)N[C@@H](Cc2c[nH]c3ccccc23)C(=O)N1C` [Example 5263] ({CH2CO}-Y[NMeA]NPHQ[Hyp]WSW[NMeNle][NMeNle][Sar]CG-NH2; thioether N-14), for which the IC50 was in the range of 1000 to 10000 nM.

Consider `CCCC[C@H]1C(=O)N(C)[C@@H](CCCC)C(=O)N[C@@H](CCC(=O)O)C(=O)N[C@H](C(=O)NCC(N)=O)CSCC(=O)N[C@@H](Cc2ccc(O)cc2)C(=O)N(C)[C@@H](C)C(=O)N[C@@H](CC(=O)O)C(=O)N2CCC[C@H]2C(=O)N[C@@H](CN)C(=O)N[C@@H](CC(C)C)C(=O)N2C[C@H](O)C[C@H]2C(=O)N[C@@H](Cc2c[nH]c3ccccc23)C(=O)N[C@@H](CCC(=O)O)C(=O)N[C@@H](Cc2c[nH]c3ccccc23)C(=O)N1C` [Example 5257] ({CH2CO}-Y[NMeA]DP[Dap]L[Hyp]WEW[NMeNle][NMeNle]ECG-NH2; thioether N-14), for which the IC50 was 10 to 99.9 nM.

For the compound `CCCC[C@H]1C(=O)N(C)[C@@H](CCCC)C(=O)N[C@@H](CCCCN(C)C)C(=O)N[C@H](C(=O)NCC(N)=O)CSCC(=O)N[C@@H](Cc2ccc(O)cc2)C(=O)N2CCCC[C@H]2C(=O)N[C@@H](CC(=O)O)C(=O)N2CCC[C@H]2C(=O)N[C@@H](CN)C(=O)N[C@@H](CCC(=O)O)C(=O)N2C[C@H](O)C[C@H]2C(=O)N[C@@H](Cc2c[nH]c3ccccc23)C(=O)N[C@@H](CO)C(=O)N[C@@H](Cc2c[nH]c3ccccc23)C(=O)N1C` [Example 1306] ({CH2CO}-Y[Pip]DP[Dap]E[Hyp]WSW[NMeNle][NMeNle][Lys(Me2)]CG-NH2; thioether N-14), the IC50 is 10 to 99.9 nM.

As to `CCCC[C@H]1C(=O)N2CCC[C@@H]2C(=O)N[C@@H](CC(=O)O)C(=O)N[C@@H](C(C)C)C(=O)N(C)[C@@H](Cc2ccccc2)C(=O)N[C@@H](CCC(=O)O)C(=O)N2CCCC[C@@H]2C(=O)N[C@@H](Cc2c[nH]c3ccccc23)C(=O)N[C@@H](Cc2ccc(O)cc2)C(=O)N[C@@H](CO)C(=O)N[C@H](C(=O)NCC(N)=O)CSCC(=O)N[C@@H](Cc2cc(F)c(F)c(F)c2)C(=O)N(C)[C@@H](Cc2ccc(F)cc2)C(=O)N1C` [Example 10565] ({CH2CO}-[Phe(3,4,5-F3)][NMePhe(4-F)][NMeNle][dP]DV[NMeF]E[dPip]WYSCG-NH2; thioether N-13), the IC50 lay within 1 to 9.9 nM.

`CCCC[C@H]1C(=O)N(C)[C@@H](CCCC)C(=O)N[C@@H](CCC(=O)O)C(=O)N[C@H](C(=O)NCC(N)=O)CSCC(=O)N[C@@H](Cc2ccc(O)cc2)C(=O)N(C)[C@@H](C)C(=O)N[C@@H](CC(=O)O)C(=O)N2CCC[C@H]2C(=O)N[C@@H](CO)C(=O)N[C@@H](CC(C)C)C(=O)N2C[C@H](O)C[C@H]2C(=O)N[C@@H](Cc2c[nH]c3ccccc23)C(=O)N[C@@H](CO)C(=O)N[C@@H](CC2CNc3ccccc32)C(=O)N1C` (stereo partly drawn) [Example 5184] ({CH2CO}-Y[NMeA]DPSL[Hyp]WS[X8][NMeNle][NMeNle]ECG-NH2; thioether N-14): the IC50 was 10 to 99.9 nM.

Staying with this experiment, now noted: PD-L1-His 10 nM, PD-1-Ig 20 nM; read-out: HTRF Human PD-L1/PD-1 Binding Assay IC50.
Consider `CCCCC[C@H]1C(=O)N[C@@H](CC(C)C)C(=O)N[C@H](C(=O)NCC(N)=O)CSCC(=O)N[C@@H](Cc2ccc(O)cc2)C(=O)N(C)[C@@H](C)C(=O)N[C@@H](CC(N)=O)C(=O)N2CCC[C@H]2C(=O)N[C@@H](Cc2cnc[nH]2)C(=O)N[C@@H](CCC(N)=O)C(=O)N2C[C@H](O)C[C@H]2C(=O)N[C@@H](Cc2c[nH]c3ccccc23)C(=O)N[C@@H](CCN)C(=O)N[C@@H](Cc2cn(CC(=O)O)c3ccccc23)C(=O)N(C)[C@@H](CCCC)C(=O)N1C` [Example 6415] ({CH2CO}-Y[NMeA]NPHQ[Hyp]W[Dab][Trp(1-CH2COOH)][NMeNle][NMeAhp(2)]LCG-NH2; thioether N-14), for which the IC50 amounted to 177 nM.
